In ChEMBL document CHEMBL3507680, “University of Dundee, Gates Library screen for HepG2 cell viability” one finds cytotoxicity data, which are given here for 72 molecules.

The data set can be described thus: Human HepG2 cell viability assay in 384 well format. The format is toxicity, cell-based. Also on record: dose 125 nL, time 70.5 hour; cytotoxicity at 70.5 h: concentration not given beside the values. To be noted: HepG2 cells, read-out: Inhibition.
For `CSc1cccc(CN(C)C(=O)c2cccc(C3CCCNC3)c2)c1` (configuration not stated), the cytotoxicity at 70.5 h is -2.36%.

Turning to `CCn1ccnc1CN1CCCn2nc(CNC(=O)C3CCC3)cc2C1`, the cytotoxicity at 70.5 h was -7.76%.

For `CCCC(=O)N1CCC(C(=O)NCCN2CCC(C)CC2)CC1`, the cytotoxicity at 70.5 h is -1.92%.

With `c1cnc(N2CCOCC3(CCCN(CC4CC4)C3)C2)cn1` (configuration not stated), the cytotoxicity at 70.5 h was -5.91%.

As for `Cc1c(NC(=O)NC2CN3CCC2CC3)cccc1C(=O)N1CCCC1` (configuration not stated), the cytotoxicity at 70.5 h was 37.5%.

As to `CC(C)n1ccc2c(NC(=O)c3n[nH]c4c3CCC4)cccc21`, the cytotoxicity at 70.5 h was 7.25%.

As for `CC(C)c1nn(C)c(N(C)C)c1CNCc1cccnc1N(C)C`, the cytotoxicity at 70.5 h is 0.645%.

In the case of `CCc1csc(C2CCCN(C(=O)c3cnn(CC)c3)C2)n1` (configuration not stated), the cytotoxicity at 70.5 h is 6.03%.

Consider `CCN(CC)CCSc1nnc(N2CCN(c3ccc(F)cc3)CC2)s1`, for which the cytotoxicity at 70.5 h is -5.54%.

As for `CC(=O)N1CC(C)CN(Cc2ccon2)c2ccccc21` (configuration not stated), the cytotoxicity at 70.5 h is -4.58%.

`O=C(CCN1CCOCC1)NC(Cc1ccsc1)c1nccs1` (configuration not stated): the cytotoxicity at 70.5 h is -4.65%.

As to `c1coc(-c2nnc(CN3CCCC3Cn3cncn3)o2)c1` (configuration not stated), the cytotoxicity at 70.5 h was -1.88%.

On to `O=C1CN(CC2CC2)Cc2nc(NCCc3ccccn3)sc21`, for which the cytotoxicity at 70.5 h was 26.4%.

For `Cc1cnc(CN(C)C2CCN(Cc3nnc(C4CC4)o3)C2)o1` (configuration not stated), the cytotoxicity at 70.5 h was -4.32%.

`CCC(c1ccccc1)S(=O)(=O)CCO` (configuration not stated): the cytotoxicity at 70.5 h is -2.1%.

In the case of `CCn1cc(CN(C)S(=O)(=O)c2ccc(C)c(C)c2)cn1`, the cytotoxicity at 70.5 h worked out at 0.0869%.

For the molecule `CN(C)c1ncc(I)c(C2CCCN2C)n1` (configuration not stated), the cytotoxicity at 70.5 h is 1.48%.

Regarding `CCn1cc(N)c(-c2nnc3n2CCCC3)n1`, the cytotoxicity at 70.5 h was -2.65%.

With `CC(C#N)CSc1ccccc1NCC(=O)NCc1ccccc1` (configuration not stated), the cytotoxicity at 70.5 h turned out to be 4.47%.

With `O=C(CCn1ccc(=O)[nH]c1=O)N1CCC(OCc2cccnc2)CC1`, the cytotoxicity at 70.5 h turned out to be 27.2%.

On to `O=C(c1ccnnc1)N1C[C@H]2CCC[C@@H](OCc3cccnc3)[C@@H]2C1`, for which the cytotoxicity at 70.5 h is -3.26%.

Turning to `Cc1cnc(N)c(C(=O)C2CCN(C(=O)c3cnc(C)nc3C)CC2)c1`, the cytotoxicity at 70.5 h is -6.36%.

Consider `CC(Cn1ccnc1)NC(=O)NCc1ccc2c(c1)OCCO2` (configuration not stated), for which the cytotoxicity at 70.5 h was found to be 2.17%.

For `CNC(=O)COc1cccc(CNC(=O)c2c(C)noc2C(C)C)c1`, the cytotoxicity at 70.5 h is -13.2%.

Consider `COC(C)c1noc(CN2CCCNCC2)n1` (configuration not stated), for which the cytotoxicity at 70.5 h is -10%.

Turning to `NC(=O)c1noc(Cn2ccc3ccccc3c2=O)n1`, the cytotoxicity at 70.5 h is -4.6%.

As for `Cc1nn(C)c(C)c1NC(=O)CNc1cccc(CC(F)(F)F)c1`, the cytotoxicity at 70.5 h is -1.15%.

Consider `Cc1noc(-c2ccc(-n3ncc(C(=O)O)c3C)nc2)n1`, for which the cytotoxicity at 70.5 h is -5.29%.

For the molecule `Fc1ccccc1Cc1noc(CN2CCC(N3CCSCC3)CC2)n1`, the cytotoxicity at 70.5 h was -3.88%.

For `O=C1[C@H]2CN(S(=O)(=O)C3CC3)C[C@H]2CN1Cc1cccnc1`, the cytotoxicity at 70.5 h was -8.9%.

For the molecule `Cc1nn(CC(=O)N2CCN(c3cnccn3)CC2)c(C)c1Cl`, the cytotoxicity at 70.5 h was -9.18%.

For `Cc1noc(C)c1C(=O)N(C)C(C)c1ccc(S(C)(=O)=O)cc1` (configuration not stated), the cytotoxicity at 70.5 h was -20.5%.

For the molecule `O=C1CN(Cc2ccc(-c3ccccc3C(=O)O)cc2)CCN1`, the cytotoxicity at 70.5 h is 37.1%.

In the case of `COc1c(CNC(c2ccccc2F)c2nccn2C)c(C)nn1C` (configuration not stated), the cytotoxicity at 70.5 h was -4.51%.

As for `CCOC(=O)N1CCN(CC(=O)Nc2nnc(CC)s2)CC1`, the cytotoxicity at 70.5 h was -4.24%.

For `CN(CC(=O)Nc1ccc(Br)cn1)C(=O)C(C)(C)C`, the cytotoxicity at 70.5 h was -6.91%.

Take `Cc1cc(C(C)(O)CNC(=O)CCOCC(C)C)c(C)o1` (configuration not stated): the cytotoxicity at 70.5 h stood at 0.738%.

As for `c1csc(CN2CCCN(c3ccc(Cn4ccnc4)cn3)CC2)c1`, the cytotoxicity at 70.5 h was -5.7%.

On to `O=C(C1=CCCC1)N1C[C@H](OCc2cccnc2)[C@H]2OCCC[C@H]21`, for which the cytotoxicity at 70.5 h is -9.34%.

With `Cc1ccc(OCCSCCn2nc3ccccn3c2=O)cc1`, the cytotoxicity at 70.5 h was -10.4%.

Consider `Cc1nc(CN2CCCN(Cc3nc4c(F)cccc4[nH]3)CC2)no1`, for which the cytotoxicity at 70.5 h is -10.4%.

For the molecule `CN(C)C1CCCN(C(=O)NCCC(C)(C)C)C1` (configuration not stated), the cytotoxicity at 70.5 h stood at 16.4%.

`Cn1ccc(C(=O)N2C[C@@H]3CCN(c4cccnc4)C[C@@H]3C2)n1`: the cytotoxicity at 70.5 h was -4.89%.

For `Cc1c(C(=O)N2CCC2)nnn1-c1ccc2ncccc2c1`, the cytotoxicity at 70.5 h was -3.53%.

In the case of `COc1cccc(CN2CCCC(Cn3nc(C)nc3C)C2)c1` (configuration not stated), the cytotoxicity at 70.5 h was -1.83%.

For the molecule `COCCNCc1cc2ccc(C)c(C)c2[nH]c1=O`, the cytotoxicity at 70.5 h is 4.37%.

In the case of `Cc1nc(NCc2ccc(F)cc2)cc(C2CCCN2)n1` (configuration not stated), the cytotoxicity at 70.5 h is -2.67%.

On to `O=C(CCN1CCCC(CC2CC2)(C(=O)O)C1)NC1CCCC1` (configuration not stated), for which the cytotoxicity at 70.5 h is -9.72%.

As to `c1ccc(N2CCOC3(CCCN(c4nncs4)C3)C2)nc1` (configuration not stated), the cytotoxicity at 70.5 h was -2.74%.

For `Cc1cc(C(F)(F)F)nc(CNC(=O)CCC2CCCCN2C)n1` (configuration not stated), the cytotoxicity at 70.5 h was found to be 0.421%.

Take `Cc1cnn(C2CCCN(C(=O)c3ccnc(N(C)C)c3)C2)c1` (configuration not stated): the cytotoxicity at 70.5 h came out at 28.8%.

Consider `Cn1cc(N2CCC3(CCN(S(=O)(=O)C4CC4)C3)C2=O)cn1` (configuration not stated), for which the cytotoxicity at 70.5 h is 4.38%.

As to `CCc1noc(C2CCCCN2C(=O)c2cccnc2)n1` (configuration not stated), the cytotoxicity at 70.5 h is -6.76%.

Consider `COc1ccc(F)c(CN2CCC3(CCC(=O)N(CC(N)=O)C3)CC2)c1`, for which the cytotoxicity at 70.5 h was 5.8%.

On to `CCn1cc(CNCC(c2ccc(Cl)cc2)n2cccn2)cn1` (configuration not stated), for which the cytotoxicity at 70.5 h was -14.8%.

`O=C(CCNC1(c2nccs2)CCCC1)N1CCOCC1`: the cytotoxicity at 70.5 h came out at 7.56%.

On to `Cc1nn(C(C)C)c2cnn(CC(=O)N3CCSCC3)c12`, for which the cytotoxicity at 70.5 h is -1.45%.

In the case of `O=C(C1CCCN1Cc1nc(-c2ccco2)no1)N1CCSCC1` (configuration not stated), the cytotoxicity at 70.5 h was -5.08%.

As for `CC(C)c1noc(CN2CCN(C(=O)c3cc(Cl)ccc3F)CC2)n1`, the cytotoxicity at 70.5 h is -8.7%.

For the molecule `CCC(CC)CN1CCN(CC(=O)Nc2ccc3nsnc3c2)CC1`, the cytotoxicity at 70.5 h worked out at 3.54%.

With `Cc1nc(N2CCCC2)nc2c1CCN(C(=O)CC1CCCC1)CC2`, the cytotoxicity at 70.5 h is -9.31%.

On to `Cc1cc(CN2CCC(CNS(=O)(=O)c3ccc(C)s3)CC2)c(C)o1`, for which the cytotoxicity at 70.5 h is -5.87%.

With `FC(F)CN1CCC(NCCc2ccc(-n3cccn3)cc2)CC1`, the cytotoxicity at 70.5 h is -5.54%.

As to `COc1cc(CNCc2c(C)nn(C)c2N(C)C)ccc1C`, the cytotoxicity at 70.5 h was -3.16%.

In the case of `Cc1ccc(OC2(C(=O)O)CCN(C(=O)c3ccccc3F)CC2)cn1`, the cytotoxicity at 70.5 h is -3.34%.

In the case of `CC(C)c1noc(CCC(=O)Nc2cc(C(F)(F)F)c[nH]c2=O)n1`, the cytotoxicity at 70.5 h is -3.33%.

For `CCN1CC2(CC1=O)CN(Cc1ccsc1)CCN(C(=O)C(C)C)C2` (configuration not stated), the cytotoxicity at 70.5 h is -15.8%.

As for `CCN(CC)c1ccc(CNC(=O)c2ccc(=O)[nH]n2)cn1`, the cytotoxicity at 70.5 h was -13.1%.

As to `CCC(C)(N)c1nc(=O)c(C)c(C)[nH]1` (configuration not stated), the cytotoxicity at 70.5 h is -7.88%.

As for `O=S(=O)(C1CC1)N1CCOC2(CCCN(Cc3ccccn3)C2)C1` (configuration not stated), the cytotoxicity at 70.5 h was -5.41%.

`Cc1nc(C(C)(C)NCc2nnc(C(C)C)o2)sc1C`: the cytotoxicity at 70.5 h was 1.69%.

Turning to `O=C(CN1CCCC1Cn1cccn1)NCCC1=CCCCC1` (configuration not stated), the cytotoxicity at 70.5 h was -9.89%.
